Columns and labels:
[1] = Spectral properties of selected fluorinated fluoresceins and rhodols; format: physicochemical; conditions: for Abs.: absorption maximum; for Em.: emission maximum; for ε × 10^-3: extinction coefficient, value is ε × 10^-3; for Quantum Yield: fluorescence quantum yield
[2] = Photodecomposition on illumination in fluorometer; format: physicochemical; conditions: % of decreased fluorescence intensity after 33 minutes of illumination in fluorometer at wavelength of maximum excitation
Description: *% of decreased fluorescence intensity after 33 minutes of illumination in
fluorometer at wavelength of maximum excitation

[3] = pH titration of fluorophores (pKa)
Description: The dye of interest is first dissolved in a series of buffers that have each been calibrated using a pH meter. Acetate buffers are typically used in the range of pH 46, and phosphate buffers in the pH range 68. Absorption measurements are made using solutions that are approximately 10 1M in concentration, and fluorescence measurements are made using solutions that are approximately 1 μM in concentration. The absorption or emission data is then plotted versus pH to determine pKa values.

[4] = system: ATP-dependent dye efflux mechanisms in lymphoid-B cell lines; assay: Dye efflux from labeled cells with and without verapamil or probenecid, flow cytometry; format: cell-based
Description: Identical batches of lymphoid-B cell lines cells are separately incubated with […] solutions of 4,5,6,7-tetrafluorofluorescein diacetate (Compound 25), 2',7'-dichloro4,5,6,7-tetrafluorofluorescein diacetate (Compound 28), 2',4,5,6,7,7'-hexafluorofluorescein diacetate ([…]) and 2',4',5',7'-tetrafluorofluorescein diacetate. To one set of each cells is added 100 μM verapamil and to another 1 mM probenecid, both of which are known to block ATP-dependent dye efflux mechanisms, as found in multidrug resistant of cells. Without washing, the cells are analyzed for brightness by flow cytometry using 488-nm excitation.

[5] = system: rabbit polyclonal anti-fluorescein IgG (H+L) fraction; assay: Fluorescence quenching by anti-fluorescein antibody; format: binding; conditions: 5×10^-9 M dye
Description: Solutions of 5×10^-9 M fluorescein and 5×10^-9 M 2',7'-difluorofluorescein (Compound 29) are prepared in 100 mM potassium phosphate buffer, pH 8.0. The fluorescence of each solution is read with excitation at 490 nm. Sequential additions of 0.5 mg/mL rabbit polyclonal anti-fluorescein IgG (H+L) fraction (Molecular Probes, Inc.) are added and the fluorescence measurements are repeated.

[6] = approximate, from fluorescence emission versus pH (FIG. 3), in water
[7] = antibody volume 0 μL, pH 8.0, excitation 490 nm
[8] = antibody volume 2 μL of 0.5 mg/mL, pH 8.0
[9] = antibody volume 4 μL of 0.5 mg/mL, pH 8.0
[10] = antibody volume 6 μL of 0.5 mg/mL, pH 8.0
[11] = antibody volume 8 μL of 0.5 mg/mL, pH 8.0
[12] = antibody volume 10 μL of 0.5 mg/mL, pH 8.0
[13] = antibody volume 12 μL of 0.5 mg/mL, pH 8.0
[14] = antibody volume 15 μL of 0.5 mg/mL, pH 8.0
[15] = given in the synthesis examples

Row | Abs. [1] [nm] | Em. [1] [nm] | ε × 10^-3 [1] [cm^-1 M^-1] | Quantum Yield [1] | photodecomposition [2] [%] | Compound | pKa ([3]; Table 1) | other results
1 | 510 | 533 | 81.3 | 0.59 | 6.0 | 5-(and-6)-carboxy-2',4',5',7'-tetrafluorofluorescein [Compound 40] | 3.7 | 
2 | 504 | 530 | 80.3 | 0.75 |  | 5-(and-6)-carboxy-2',7'-dichlorofluorescein [reference compound] |  | 
3 | 492 | 516 | 85.9 | 0.92 | 9.0 | 5-(and-6)-carboxy-2',7'-difluorofluorescein | 4.8 | 
4 | 495 | 518 |  |  | 4.0 | 5-(and-6)-carboxy-2'-fluororhodol [Compound 55] | 3.8 | 
5 | 510 | 534 | 84.2 | 0.43 | 11 | 5-(and-6)-carboxy-4',5'-difluorofluorescein [Compound 41] | 5.2 | 
6 | 494 | 519 |  |  | 4.0 | 5-(and-6)-carboxy-7'-fluororhodol | 5.2 | 
7 | 519 | 553 |  |  | 5.0 | 5-(and-6)-carboxy-N,N-dimethyl-2'-fluororhodol | 4.2 | 
8 | 520 | 546 |  |  | 5.0 | 5-(and-6)-carboxy-N,N-dimethyl-7'-fluororhodol | 5.3 | 
9 | 494 | 521 | 69.6 | 0.89 | 4.0 | 5-(and-6)-carboxyrhodol [reference compound] | 5.6 | 
10 | 507 | 526 | 87.5 | 0.86 |  | O=C(O)CSc1c(F)c(F)c2c(c1F)C1(OC2=O)c2cc(F)c(O)cc2Oc2cc(O)c(F)cc21 [Compound 59, 6-carboxymethylthio-2',4,5,7,7'-pentafluorofluorescein] |  | 
11 | 503 | 522 | 77.5 | 0.053 |  | Nc1c(F)c(F)c2c(c1F)C1(OC2=O)c2ccc(O)cc2Oc2cc(O)ccc21 [Compound 68, 6-amino-4,5,7-trifluorofluorescein] |  | 
12 | 507 | 527 | 79.9 | 0.92 |  | [N-]=[N+]=Nc1c(F)c(F)c2c(c1F)C1(OC2=O)c2ccc(O)cc2Oc2cc(O)ccc21 [Compound 78, 6-azido-4,5,7-trifluorofluorescein] |  | 

Continued, compound first:

Row | Compound | Abs. [1] [nm] | Em. [1] [nm] | ε × 10^-3 [1] [cm^-1 M^-1] | Quantum Yield [1] | photodecomposition [2] [%] | pKa ([3]; Table 1) | other results
13 | 5-(and-6)-carboxy-N,N-dimethylrhodol [reference compound] | 518 | 544 |  | 0.26 |  |  | 
14 | O=C1OC2(c3cc(Cl)c(O)cc3Oc3cc(O)c(Cl)cc32)c2ccccc21 [2',7'-dichlorofluorescein, reference compound] |  |  |  |  |  | 5.1 | pKa [3, 6]: ~ 5.1
15 | O=C(O)c1ccc(-c2c3cc(F)c(=O)cc-3oc3cc(O)c(F)cc23)c(S(=O)(=O)O)c1 [9-(4-carboxy-2-sulfo)-6-hydroxy-2,7-difluoro-3H-xanthene-3-one] | 497 | 517 | 83.8 | 0.92 | 7.3 | 4.3 | 
16 | O=C1OC2(c3cc(F)c(O)cc3Oc3cc(O)c(F)cc32)c2c(F)c(F)c(F)c(F)c21 [Compound 26, 2',4,5,6,7,7'-hexafluorofluorescein] | 508 | 527 | 81.2 | 0.96 | 4.0 | 4.8 | 
17 | CC(=O)Oc1cc2c(cc1Cl)C1(OC(=O)c3c(F)c(F)c(F)c(F)c31)c1cc(Cl)c(OC(C)=O)cc1O2 [Compound 28, 2',7'-dichloro4,5,6,7-tetrafluorofluorescein Diacetate] |  |  |  |  |  |  | Mean Fluorescence intensity of labeled cells ([4]; 100 μM verapamil): 110; Mean Fluorescence intensity of labeled cells ([4]; 1 mM Probenecid): 80.6; Mean Fluorescence intensity of labeled cells ([4]; No drug): 15.6
18 | O=C1OC2(c3cc(F)c(O)cc3Oc3cc(O)c(F)cc32)c2ccccc21 [Compound 29, 2',7'-difluorofluorescein] | 490 | 513 | 84.7 | 0.97 | 8.0 | 4.7 | Fluorescence Intensity [5, 7]: 100%; Fluorescence Intensity [5, 8]: 83.6%; Fluorescence Intensity [5, 9]: 67.3%; Fluorescence Intensity [5, 10]: 51.9%; Fluorescence Intensity [5, 11]: 36.5%; Fluorescence Intensity [5, 12]: 23.8%; Fluorescence Intensity [5, 13]: 13.4%; Fluorescence Intensity [5, 14]: 6.3%; pKa [3, 6]: ~ 4.7
19 | O=C1OC2(c3cc(Cl)c(O)cc3Oc3cc(O)c(Cl)cc32)c2c(F)c(F)c(F)c(F)c21 [Compound 37, 2',7'-dichloro4,5,6,7-tetrafluorofluorescein] | 520 | 538 | 88.5 | 0.80 | 3.0 | 4.2 | 
20 | O=c1c(F)c2oc3c(F)c(O)c(F)c(F)c3c(-c3c(F)c(F)c(F)c(F)c3F)c-2c(F)c1F [Compound 50, 1,2,4,5,7,8-hexafluoro-6-hydroxy-9-pentafluorophenylxanthen-3-one] |  |  |  | 0.11 | 4.0 | 2.8 | 
21 | CN(C)c1ccc2c(c1)Oc1cc(O)c(F)cc1C21OC(=O)c2ccccc21 (stereo not shown) [Compound 51, 2'-fluoro-N,N-dimethylrhodol] |  |  |  |  |  |  | pKa [3, 15]: 4.2
22 | Nc1cc2c(cc1F)C1(OC(=O)c3ccccc31)c1ccc(O)cc1O2 (stereo not shown) [Compound 52, 7'-fluororhodol] |  |  |  |  |  |  | pKa [3, 15]: 5.2
23 | CN(C)c1cc2c(cc1F)C1(OC(=O)c3ccccc31)c1ccc(O)cc1O2 (stereo not shown) [Compound 53, N,N-dimethyl-7'-fluororhodol] |  |  |  |  |  |  | pKa [3, 15]: 5.3
24 | Nc1ccc2c(c1)Oc1cc(O)c(F)cc1C21OC(=O)c2ccccc21 (stereo not shown) [Compound 54, 2'-fluororhodol] |  |  |  |  |  |  | pKa [3, 15]: 3.8
25 | O=C(O)CSc1c(F)c(F)c2c(c1F)C1(OC2=O)c2ccc(O)cc2Oc2cc(O)ccc21 [Compound 58, 6-carboxymethylthio-4,5,7-trifluorofluorescein] | 507 | 526 | 63.5 | 0.88 | 5.0 | 4.5 | 
26 | O=C1OC2(c3ccc(O)cc3Oc3cc(O)ccc32)c2ccccc21 [fluorescein, reference compound] | 490 | 514 | 82.2 | 0.92 | 17 | 6.5 | Fluorescence Intensity [5, 7]: 100%; Fluorescence Intensity [5, 8]: 84.6%; Fluorescence Intensity [5, 9]: 68.8%; Fluorescence Intensity [5, 10]: 54.3%; Fluorescence Intensity [5, 11]: 38.5%; Fluorescence Intensity [5, 12]: 22.9%; Fluorescence Intensity [5, 13]: 11.7%; Fluorescence Intensity [5, 14]: 4.4%
